In patent US20020054880A1, “Anti-inflammatory, tolerogenic and immunoinhibiting properties of carbohydrate binding-peptides” (priority 1992, published 2002):

Legend:
[1] = molecular target: T1, PT-biotin binding to fetuin (Bos taurus, UniProt P12763); assay: PT-biotin binding to fetuin, binding inhibition assay; design: species or system Bordetella pertussis; conditions: peptide mg/mL: S2PL 1.2, ACS2P1 1.0, S2(14-2.3) 1.0, S2P2 1.1, S2P3 0.51, S2P4 0.98, S2P6 0.85, S3P1 3.2, S3P2 3.1, S3P3 4.5, S3P4 3.3, S3P5 0.48, S3P9a 1.7, SPYGRC 4.4, S2(WGA) 1.0, WGA (62-73) 1.0; + enhancement, − inhibition
T1 construct: purchased Sigma Chemical Company (fetuin); Connaught Center for Biotechnology Research (PT)
T1 sequence (P12763 19-359): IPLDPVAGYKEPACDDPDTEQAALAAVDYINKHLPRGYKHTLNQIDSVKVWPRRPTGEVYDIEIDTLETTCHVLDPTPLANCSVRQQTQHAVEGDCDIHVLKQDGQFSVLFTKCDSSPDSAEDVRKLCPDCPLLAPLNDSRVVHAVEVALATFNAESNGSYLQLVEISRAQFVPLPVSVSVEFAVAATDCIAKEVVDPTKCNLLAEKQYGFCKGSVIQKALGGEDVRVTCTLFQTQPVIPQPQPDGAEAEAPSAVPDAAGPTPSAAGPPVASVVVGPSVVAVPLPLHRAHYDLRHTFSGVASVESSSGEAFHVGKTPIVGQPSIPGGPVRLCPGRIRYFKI
Method: (§1) Peptides ranging in concentration from 0.5 to 4.5 mg/ml in PBS (40 μl) were added to each well and PT-biotin (10 μl containing 10 ng in PBS) was then added to the microtiter wells. […] Horseradish peroxidase-conjugated avidin (100 μl, 1/3000 dilution in PBST to a concentration of 0.3 μg/ml) was then added to the wells, and the plates were incubated at ambient temperature for 1 hour. […] Color development was recorded at 405 nm using a Titertek Multiskan MC plate reader. […] Binding assays for each peptide were done in duplicate. Binding inhibition experiments utilizing SNA-, WGA-, and MAL-biotin were performed as described above using 10 ng of each biotinylated lectin in PBS.
(§2) Binding assays for each inhibitor concentration were done at least in duplicate, and the average value varied less than 15%.

Balb/c mice [2] = assay: DTH inflammatory response, mouse footpad swelling assay; format: in vivo; conditions: 100 μg peptide into the tail vein 5 hours after challenge with 20 μg OVA; FIG. 2
Method: DTH inflammatory responses were measured using the mouse footpad swelling assay as described by Smith and Ziola^64. Briefly, groups of Balb/c mice (about 19-20 grams each) were immunized with 100 μg of the OVA antigen containing 20μg of the adjuvant (DDA—dimethyl-dioctadecylammonium bromide) which also induces a strong inflammatory DTH response. Seven days later, each group of mice was footpad-challenged with 20 μg of the OVA antigen (without adjuvant). The resulting inflammatory footpad swelling was measured with a Mitutoyo Engineering micrometer 24 hours after challenge.
To assess the effect of different peptides on the inflammatory DTH response, groups of mice received 100 μg of the following peptides- ACS2P1 (2275), SPYGRC (2283), and S3P9a. These peptides were injected as a solution into the tail vein, 5 hours after challenge. Control groups were left untreated or received 100 μL of phosphate-buffered saline (PBS).

[3] = molecular target: T2, SNA-biotin binding to fetuin (Bos taurus, UniProt P12763); assay: biochemical
T2 sequence (P12763 19-359): T1 sequence (P12763 19-359)
Method: The solution was removed by aspiration and replaced with 100 μl of 1% BSA in PBS containing 0.05% Tween 20 (PBST). After incubation for 2-4 hours at room temperature, the microtiter wells were washed four times with 300 μl of PBST. Peptides ranging in concentration from 0.5 to 4.5 mg/ml in PBS (40 μl) were added to each well and PT-biotin (10 μl containing 10 ng in PBS) was then added to the microtiter wells. After incubating for 1 hour, the binding reaction was stopped by aspirating the solutions and the plate was washed with PBST (300 μl). Horseradish peroxidase-conjugated avidin (100 μl, 1/3000 dilution in PBST to a concentration of 0.3 μg/ml) was then added to the wells, and the plates were incubated at ambient temperature for 1 hour. After washing the wells as described above, the substrate solution [1 mM ABTS in 5 mM citrate buffer, pH 4.2, containing 0.1% hydrogen peroxide, v/v) was added and the plates were incubated for 30 minutes. Color development was recorded at 405 nm using a Titertek Multiskan MC plate reader. Maximum binding was determined in the absence of peptide, and background binding was measured in wells coated with BSA only. Binding assays for each peptide were done in duplicate. Binding inhibition experiments utilizing SNA-, WGA-, and MAL-biotin were performed as described above using 10 ng of each biotinylated lectin in PBS.

Balb/c mice [4] = assay: Persistence of suppression of DTH response on OVA re-challenge at 2 weeks; format: in vivo; conditions: mice treated as in Example 11, re-challenged at 2 weeks; FIG. 3
From the text: Identical groups of mice treated with the peptides in Example 11 above, were re-challenged with OVA antigen 2 weeks after primary immunization.

[5] = test system: pertussis toxin binding to Chinese Hamster ovary (CHO) cell; assay: CHO cell neutralization of pertussis toxin (cell clumping); format: cell-based; conditions: PT 2.4 ng/ml, peptide and PT 1 hour, triplicate
Method: Confluent monolayers of CHO cells were lifted from plastic tissue culture flasks with 0.25% trypsin and suspended at a concentration of 5×10^4 cells/ml in Ham's F12 media containing 10% fetal bovine serum (FBS). 100 μl of the cell suspension was added to 96 well tissue culture plates and were allowed to establish contact with the plastic for 24 to 48 hours. The expended media was then removed and filtered-sterilized peptide 5-fold dilutions ranging in concentration from 300 to 30 femptogram per ml (80 μl) in Ham' F12 media containing FBS were added to the CHO cells. […] The incubation mixtures were gently mixed and incubated at 37° C. for 1 hour in a CO2 incubator. The incubation mixtures were then removed and replaced with fresh media. The tissue culture plates were then incubated for 24 hours at 37° C., fixed with 100% methanol, and stained with Geimsa stain. Control experiments were done in the absence of peptide alone or in the absence of PT. All determinations were done in triplicate. […] The results reported in Table VIII show the maximum peptide concentration required to cause a 50% reduction in CHO cell clumping.

[6] = molecular target: T3, MAL-biotin binding to fetuin (Bos taurus, UniProt P12763); assay: MAL-biotin binding to fetuin, binding inhibition assay; design: species or system Maackia amurensis; conditions: peptide mg/mL: S2PL 1.2, ACS2P1 1.0, S2(14-2.3) 1.0, S2P2 1.1, S2P3 0.51, S2P4 0.98, S2P6 0.85, S3P1 3.2, S3P2 3.1, S3P3 4.5, S3P4 3.3, S3P5 0.48, S3P9a 1.7, SPYGRC 4.4, S2(WGA) 1.0, WGA (62-73) 1.0; + enhancement, − inhibition
T3 construct: purchased Sigma Chemical Company (fetuin); Boehringer Mannheim (MAL-biotin)
T3 sequence (P12763 19-359): T1 sequence (P12763 19-359)
Method: as §1, §2

CC(C)C[C@H](NC(=O)[C@H](CC(C)C)NC(=O)[C@@H](N)CCCNC(=N)N)C(=O)N[C@@H](C)C(=O)N[C@@H](CO)C(=O)N[C@H](C(=O)N[C@@H](CC(N)=O)C(=O)N[C@@H](CO)C(=O)N[C@@H](CCCNC(=N)N)C(=O)N[C@@H](CC(C)C)C(=O)N[C@@H](CS)C(=O)N[C@@H](C)C(=O)N[C@H](C(=O)N[C@@H](Cc1ccccc1)C(=O)N[C@H](C(=O)N[C@@H](CCCNC(=N)N)C(=O)N[C@@H](CC(=O)O)C(=O)NCC(=O)O)C(C)C)C(C)C)[C@@H](C)O [Peptide S3P9a]
Percent Changes in Binding Activity PT/fetuin [1]: +328 ± 10%
effect on DTH inflammatory response (footpad swelling 24 hours after challenge), in words (Balb/c mice [2]): effective in reducing a DTH response in mice
IC50 [3]: 2740 ± 860 µM
Percent Changes in Binding Activity SNA/fetuin ([3]; peptide mg/mL: S2PL 1.2, ACS2P1 1.0, S2(14-2.3) 1.0, S2P2 1.1, S2P3 0.51, S2P4 0.98, S2P6 0.85, S3P1 3.2, S3P2 3.1, S3P3 4.5, S3P4 3.3, S3P5 0.48, S3P9a 1.7, SPYGRC 4.4, S2(WGA) 1.0, WGA (62-73) 1.0, + enhancement, − inhibition): −41 ± 3%
DTH response (footpad swelling) on later re-challenge with OVA antigen, in words (Balb/c mice [4]): reduced immune response
Maximal Inhibitory Concentration for Greater than 50% Inhibition [5]: NI (Not inhibitory at a peptide concentration of 300 ng/ml.)
Percent Changes in Binding Activity MAL/fetuin [6]: +18 ± 6%
